We go through five compounds from patent US10081615B2, “Sulfamate derivative compounds for use in treating or alleviating pain” (Bio-Pharm Solutions Co., Ltd., priority 2013, dated 2018).

Like-named read-outs stand apart in the source and are kept apart here.

The subject of one assay is STZ-induced pain model. In words: Antiallodynic activity in the streptozotocin (STZ)-induced diabetic pain model (von Frey). The class given is in vivo, Sprague-Dawley rats. Particulars: 0.5 h; for ED50: ip. How it is done: Male, Sprague-Dawley rats (200-220 g, Nara Bio, Korea) were habituated for 1 week before surgery and allowed free access to food and water throughout the experimentation. Room temperature and humidity were maintained at 24±2° C. and 50±10%, respectively.
The STZ-induced diabetic pain model was established with a modified method of Rakieten et al. (1963) and Bertrand Aubel et al. (2004). All animals were fasted for 4 to 6 hr prior to STZ injection. STZ (sigma, USA) was dissolved in 20 mM sodium citrate buffer, pH 5.5 (Sigma. USA) and intraperitoneally injected at 75 mg/kg, 4 ul/g by bodyweight into the rats. Sham controls were injected with same volume of 20 mM sodium citrate buffer, pH 5.5, and vehicle controls were identical to STZ model except for administration of vehicles without treatment. Rats were supplied with 10% sucrose water for 2 days to protect against sudden hypoglycemia, 3 days later, the induction of diabetes was checked by the measurement of tail vein blood glucose levels with a blood glucose meter. (LifeScan OneTouch Ultra, USA). […]
Tactile sensitivity (mechanical allodynia) was evaluated using von Frey monofilaments before and after treatment of the compound of Examples and the animals were included in the study only if the withdrawal threshold value was less than 4 g. […] The tactile sensitivity for the ipsilateral hind paw was measured using the up-and-down method (Dixon, 1980) with seven von Frey monofilaments (0.4, 1, 2, 4, 6, 8, and 15 g) in 3 trials. […] The 50% paw withdrawal threshold for each paw was calculated using the following formula: [Xth] log=[vFr] log+ky where [vFr] is the force of the last von Frey used, k=0.2249 which is the average interval (in log units) between the von Frey monofilaments, and y is a value that depends upon the pattern of withdrawal responses (Dixon, 1980). […]
The relative values compared to the sham (% control) were calculated and shown in Table 9, which show an antiallodynic effect of the compound of examples on STZ-induced pain model in rats.

The subject of another assay is CFA-induced pain model. In words: Antiallodynic activity on Complete Freund's Adjuvant (CFA)-induced inflammatory pain model (von Frey). The format is in vivo, Sprague-Dawley rats. The following applies: ip.
For assay [1], the system named is acetic acid-induced writhes. The assay is described as follows: Writhing test (acetic acid). The format is in vivo, ICR mice. As for the experimental part: To examine the pain relief effect of the sulfamate derivative compounds, a writhing test was referring to Fischer, L. G. et al. (2008).
ICR mice (male, 24-28 g; Orient Bio, Korea) were habituated before test in test room for 1 hour. Animals were fasted for 2 hr before administration of compounds. […] All compounds were dissolved in a vehicle of 30% (v/v) PEG 400 or 20% (v/v) Tween 80. The control group was treated with the vehicle without compounds.
[…] Animals were habituated in the cage for 5 min. 5 min after habituation, the number of writhes (abdominal constriction) was counted for 15 minutes referring to Korzeniewska-Rybicka, I. et al. (1998) and compared with that of the control.
In general terms: An intraperitoneal irritant provokes the stretching counted in writhing tests.

[2] abbreviates: Rattus norvegicus, 0.5 h, read-out: CFA model: ED50 mg/kg.
Where [3] appears, read: Mus musculus, po, 0.5 h, read-out: Writh test: ED50 mg/kg.

For `CC1(C)Oc2ccccc2[C@@H](COS(N)(=O)=O)O1` [Example 2, ((S)-2,2-dimethyl-4H-benzo[d][1,3]dioxin-4-yl)methyl sulfamate], the ED50 in the assay with STZ-induced pain model (rat, intraperitoneal, read-out: STZ model: ED50) is 27.4 mg/kg; in the assay with CFA-induced pain model (rat, intraperitoneal, 0.5 h, read-out: CFA model: ED50), 18.8 mg/kg; in assay [1] (mouse, oral, 1 h, read-out: Writh test: ED50), 152 mg/kg.

On to `CC1(C)Oc2ccccc2[C@H](COS([NH-])(=O)=O)O1.[Na+]` [Example 58, Sodium (R)-(((2,2-dimethyl-4H-benzo[d][1,3]dioxin-4-yl)methoxy)sulfonyl)amide Trihydrate], for which the ED50 in the assay with CFA-induced pain model (setting [2]) turned out to be 23.3 mg/kg.

As for `CC1(C)Oc2ccccc2C(COS([NH-])(=O)=O)O1.[Na+]` (stereo not drawn) [Example 60, Sodium (((2,2-dimethyl-4H-benzo[d][1,3]dioxin-4-yl)methoxy)sulfonyl)amide Trihydrate], the ED50 with STZ-induced pain model (Rattus norvegicus, read-out: STZ model: ED50 mg/kg) is 16.1 mg/kg; with CFA-induced pain model (Rattus norvegicus, 1 h, read-out: CFA model: ED50 mg/kg), 25 mg/kg; in assay [1] (setting [3]) it was 21 mg/kg.

On to `[NH-]S(=O)(=O)OC[C@H]1OC2(CCCC2)Oc2ccccc21.[Na+]` [Example 65, Sodium (S)-(((4H-spiro[benzo[d][1,3]dioxine-2,1′-cyclopentan]-4-yl)methoxy)sulfonyl)amide], for which the “STZ model: effect (%) compared to control” value with STZ-induced pain model (rat, intraperitoneal, 100 mg/kg administered) is listed as “(25.7%, 0.5 h)”. Also, the ED50 in the assay with CFA-induced pain model (setting [2]) turned out to be 89.1 mg/kg; in assay [1] (setting [3]), 55.1 mg/kg.

Turning to `CC1(C)Oc2ccccc2[C@H](COS([NH-])(=O)=O)O1.[K+]` [Example 70, Potassium (R)-(((2,2-dimethyl-4H-benzo[d][1,3]dioxin-4-yl)methoxy)sulfonyl)amide], the response vs control in vivo at 25 mg/kg in the assay with CFA-induced pain model (Rattus norvegicus, 0.5 h, read-out: CFA model: effect (%) compared to control) was determined as 10.5%. In assay [1] (mouse, oral, 80 mg/kg administered, 1 hr), the “Writh test: effect (%) compared to control” value is reported as “(29.1%, 1 hr)”.
